Test results published in PubChem BioAssay AID2060899 (Molecular Pharmacology Branch, DTP, NCI, 2025).

System: 565726-208-R1-J5-PDC complex spheroids, growth inhibition
Assay: Anticancer human tumor 565726-208-R1-J5-PDC patient-derived pancreatic adenocarcinoma cell line growth inhibition [RAS]
Conditions: for viability, T/C: stronger effect = lower value; active = viability on the fitted dose curve at most 10% of control; inactive = the rest
Method in brief: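 Agents were tested in combination matrices in half-log decrements from a top concentration at or near clinical Cmax (10 microM if undetermined). Targets were multi-cell spheroids of tumour lines plus HUVEC and MSC stromal cells.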

[1] = curve of first compound, second compound 0.000949 µM
[2] = curve of first compound, second compound 0.003 µM
[3] = curve of first compound, second compound 0.00949 µM
[4] = curve of first compound, second compound 0.03 µM
[5] = curve of first compound, second compound 0.0949 µM
[6] = curve of first compound, second compound 0.3 µM
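Also: spheroids exposed to compounds for seven days before readout.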
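For viability, T/C in this document: 100% = DMSO vehicle control viability.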

CCN1CCN(Cc2ccc(Nc3ncc(F)c(-c4cc(F)c5nc(C)n(C(C)C)c5c4)n3)nc2)CC1 + CCn1c(-c2cc(N3CCN(C)CC3)cnc2C(C)OC)c2c3cc(ccc31)-c1csc(n1)CC(NC(=O)C1CC1C)C(=O)N1CCCC(N1)C(=O)OCC(C)(C)C2
< 3.16 nM: IC50 [2] | IC50 [3] | IC50 [4] | IC50 [5] | IC50 [6]
inactive: viability, T/C (second compound 0.000949 µM, first compound 0.00316 µM) 57.7% | viability, T/C (second compound 0.000949 µM, first compound 0.01 µM) 57.9% | viability, T/C (second compound 0.000949 µM, first compound 0.0316 µM) 57% | viability, T/C (second compound 0.000949 µM, first compound 0.1 µM) 47.2% | viability, T/C (second compound 0.000949 µM, first compound 0.316 µM) 35.4% | viability, T/C (second compound 0.000949 µM, first compound 1 µM) 31.6% | viability, T/C (second compound 0.003 µM, first compound 0.00316 µM) 51.7% | viability, T/C (second compound 0.003 µM, first compound 0.01 µM) 41.4% | viability, T/C (second compound 0.003 µM, first compound 0.0316 µM) 51.7% | viability, T/C (second compound 0.003 µM, first compound 0.1 µM) 35.5% | viability, T/C (second compound 0.003 µM, first compound 0.316 µM) 35% | viability, T/C (second compound 0.003 µM, first compound 1 µM) 23.9% | viability, T/C (second compound 0.00949 µM, first compound 0.00316 µM) 41.4% | viability, T/C (second compound 0.00949 µM, first compound 0.01 µM) 41.4% | viability, T/C (second compound 0.00949 µM, first compound 0.0316 µM) 31.1% | viability, T/C (second compound 0.00949 µM, first compound 0.1 µM) 32.4% | viability, T/C (second compound 0.00949 µM, first compound 0.316 µM) 22.3% | viability, T/C (second compound 0.00949 µM, first compound 1 µM) 18.8% | viability, T/C (second compound 0.03 µM, first compound 0.00316 µM) 33.2% | viability, T/C (second compound 0.03 µM, first compound 0.01 µM) 29.2% | viability, T/C (second compound 0.03 µM, first compound 0.0316 µM) 28.4% | viability, T/C (second compound 0.03 µM, first compound 0.1 µM) 25.5% | viability, T/C (second compound 0.03 µM, first compound 0.316 µM) 22.7% | viability, T/C (second compound 0.03 µM, first compound 1 µM) 18.8% | viability, T/C (second compound 0.0949 µM, first compound 0.00316 µM) 25.1% | viability, T/C (second compound 0.0949 µM, first compound 0.01 µM) 23.8% | viability, T/C (second compound 0.0949 µM, first compound 0.0316 µM) 22% | viability, T/C (second compound 0.0949 µM, first compound 0.1 µM) 21.1% | viability, T/C (second compound 0.0949 µM, first compound 0.316 µM) 19.4% | viability, T/C (second compound 0.0949 µM, first compound 1 µM) 15.7% | viability, T/C (second compound 0.3 µM, first compound 0.00316 µM) 24.1% | viability, T/C (second compound 0.3 µM, first compound 0.01 µM) 23.3% | viability, T/C (second compound 0.3 µM, first compound 0.0316 µM) 20.1% | viability, T/C (second compound 0.3 µM, first compound 0.1 µM) 18.8% | viability, T/C (second compound 0.3 µM, first compound 0.316 µM) 18% | viability, T/C (second compound 0.3 µM, first compound 1 µM) 15.6%
72.8 nM: IC50 [1]

C#Cc1c(F)ccc2cc(O)cc(-c3ncc4c(N5CC6CCC(C5)N6)nc(OCC56CCCN5CC(F)C6)nc4c3F)c12 (stereo not given)
> 10000 nM: IC50 (compound alone, run of 07/15/2024)
inactive: viability, T/C (compound 0.0316 µM) 104% [middle of 8 runs] | viability, T/C (compound 0.1 µM) 101% [middle of 8 runs] | viability, T/C (compound 0.316 µM) 94.6% [middle of 8 runs] | viability, T/C (compound 1 µM) 84.3% [middle of 8 runs] | viability, T/C (compound 3.16 µM) 78.7% [middle of 8 runs]

CC1(C)CCC(Nc2ncc(C(F)(F)F)c(-c3c[nH]c4c(P(C)(C)=O)c(C#N)ccc34)n2)CN1 (stereo not given) + CCn1c(-c2cccnc2C(C)OC)c2c3cc(ccc31)N1CCOC(CC(NC(=O)C(C(C)C)N(C)C(=O)C3(F)CCN(C(=O)C#CC(C)(C)N(C)C)CC3)C(=O)N3CCCC(N3)C(=O)OCC(C)(C)C2)C1
3.98 nM: IC50 [3]
inactive: viability, T/C (second compound 0.000949 µM, first compound 0.000949 µM) 86% | viability, T/C (second compound 0.000949 µM, first compound 0.003 µM) 54% | viability, T/C (second compound 0.000949 µM, first compound 0.00949 µM) 37.6% | viability, T/C (second compound 0.000949 µM, first compound 0.03 µM) 32.1% | viability, T/C (second compound 0.000949 µM, first compound 0.0949 µM) 32.2% | viability, T/C (second compound 0.000949 µM, first compound 0.3 µM) 29.5% | viability, T/C (second compound 0.003 µM, first compound 0.000949 µM) 89% | viability, T/C (second compound 0.003 µM, first compound 0.003 µM) 55% | viability, T/C (second compound 0.003 µM, first compound 0.00949 µM) 36.5% | viability, T/C (second compound 0.003 µM, first compound 0.03 µM) 29.2% | viability, T/C (second compound 0.003 µM, first compound 0.0949 µM) 29.5% | viability, T/C (second compound 0.003 µM, first compound 0.3 µM) 28.7% | viability, T/C (second compound 0.00949 µM, first compound 0.000949 µM) 83.2% | viability, T/C (second compound 0.00949 µM, first compound 0.003 µM) 55.4% | viability, T/C (second compound 0.00949 µM, first compound 0.00949 µM) 33.5% | viability, T/C (second compound 0.00949 µM, first compound 0.03 µM) 27.9% | viability, T/C (second compound 0.00949 µM, first compound 0.0949 µM) 26.9% | viability, T/C (second compound 0.00949 µM, first compound 0.3 µM) 27.6% | viability, T/C (second compound 0.03 µM, first compound 0.000949 µM) 76% | viability, T/C (second compound 0.03 µM, first compound 0.003 µM) 50.9% | viability, T/C (second compound 0.03 µM, first compound 0.00949 µM) 36.4% | viability, T/C (second compound 0.03 µM, first compound 0.03 µM) 29% | viability, T/C (second compound 0.03 µM, first compound 0.0949 µM) 28.6% | viability, T/C (second compound 0.03 µM, first compound 0.3 µM) 29.3% | viability, T/C (second compound 0.0949 µM, first compound 0.000949 µM) 69.3% | viability, T/C (second compound 0.0949 µM, first compound 0.003 µM) 46.7% | viability, T/C (second compound 0.0949 µM, first compound 0.00949 µM) 30% | viability, T/C (second compound 0.0949 µM, first compound 0.03 µM) 26.9% | viability, T/C (second compound 0.0949 µM, first compound 0.0949 µM) 29% | viability, T/C (second compound 0.0949 µM, first compound 0.3 µM) 32.9% | viability, T/C (second compound 0.3 µM, first compound 0.000949 µM) 52% | viability, T/C (second compound 0.3 µM, first compound 0.003 µM) 35.6% | viability, T/C (second compound 0.3 µM, first compound 0.00949 µM) 27.4% | viability, T/C (second compound 0.3 µM, first compound 0.03 µM) 26.7% | viability, T/C (second compound 0.3 µM, first compound 0.0949 µM) 27.8% | viability, T/C (second compound 0.3 µM, first compound 0.3 µM) 26.5%
3.25 nM: IC50 [4]
3.9 nM: IC50 [1]
1.09 nM: IC50 [6]
2.54 nM: IC50 [5]
4.09 nM: IC50 [2]
